Results taken from ChEMBL document CHEMBL5038669, “Development of the First Covalent Monopolar Spindle Kinase 1 (MPS1/TTK) Inhibitor” (J Med Chem, 2022).
The source made the active and inactive calls. The rule behind the calls is not given here.

Legend:
COLO 205 = assay: Antiproliferative activity against human COLO 205 cells; type: functional, cell-based
[1] = biological target: T1, Dual specificity protein kinase TTK (Homo sapiens, UniProt P33981); assay: Inhibition of recombinant human full length N-terminal GST-fused MPS1 (1 to 857 residues) using histone H3 as substrate measured immediately in presence of DTT by TR-FRET assay
T1 sequence (P33981 whole entry): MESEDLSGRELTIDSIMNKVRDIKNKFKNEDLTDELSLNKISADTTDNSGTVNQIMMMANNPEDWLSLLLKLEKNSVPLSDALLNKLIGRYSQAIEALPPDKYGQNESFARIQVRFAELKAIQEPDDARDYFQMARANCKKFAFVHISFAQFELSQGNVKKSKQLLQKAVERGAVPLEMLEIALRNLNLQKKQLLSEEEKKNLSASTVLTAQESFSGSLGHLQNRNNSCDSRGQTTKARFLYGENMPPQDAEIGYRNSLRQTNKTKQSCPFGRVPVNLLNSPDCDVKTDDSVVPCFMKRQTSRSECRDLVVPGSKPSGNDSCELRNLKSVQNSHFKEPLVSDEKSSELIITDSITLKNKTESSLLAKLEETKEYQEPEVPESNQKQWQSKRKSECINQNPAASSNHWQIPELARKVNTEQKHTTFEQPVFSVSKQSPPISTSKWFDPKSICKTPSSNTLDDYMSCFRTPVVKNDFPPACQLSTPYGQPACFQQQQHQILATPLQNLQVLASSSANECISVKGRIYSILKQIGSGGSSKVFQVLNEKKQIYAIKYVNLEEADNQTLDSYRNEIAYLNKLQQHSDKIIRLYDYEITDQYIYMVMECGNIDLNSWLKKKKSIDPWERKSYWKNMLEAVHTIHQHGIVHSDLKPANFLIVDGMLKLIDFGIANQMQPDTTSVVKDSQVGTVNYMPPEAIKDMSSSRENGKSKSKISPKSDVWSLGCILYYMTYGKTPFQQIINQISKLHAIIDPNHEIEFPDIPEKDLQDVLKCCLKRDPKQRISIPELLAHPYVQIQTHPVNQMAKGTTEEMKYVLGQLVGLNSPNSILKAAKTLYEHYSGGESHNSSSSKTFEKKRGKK

MDA-MB-468 = assay: Cytotoxicity against human MDA-MB-468 cells assessed as reduction in cell viability incubated for 5 days by XTT assay; type: functional, cell-based; conditions: time 5.0 day
[2] = biological target: T2, Dual specificity protein kinase TTK (Homo sapiens) (UniProt P33981); assay: Covalent inhibition of human full length N-terminal GST-fused MPS1 (1 to 857 residues) assessed as Kinact by TR-FRET assay
T2 sequence (whole entry): T1 sequence (P33981 whole entry)

[3] = biological target: T1, Dual specificity protein kinase TTK; assay: Inhibition of recombinant human full length N-terminal GST-fused MPS1 (1 to 857 residues) using histone H3 as substrate measured after 1 hr in presence of DTT by TR-FRET assay
HT-29 = assay: Antiproliferative activity against human HT-29 cells; type: functional, cell-based
[4] = biological target: T3, Serine/threonine-protein kinase 17B (Homo sapiens) (UniProt O94768); conditions: dose 10.0 µM
T3 sequence (whole entry): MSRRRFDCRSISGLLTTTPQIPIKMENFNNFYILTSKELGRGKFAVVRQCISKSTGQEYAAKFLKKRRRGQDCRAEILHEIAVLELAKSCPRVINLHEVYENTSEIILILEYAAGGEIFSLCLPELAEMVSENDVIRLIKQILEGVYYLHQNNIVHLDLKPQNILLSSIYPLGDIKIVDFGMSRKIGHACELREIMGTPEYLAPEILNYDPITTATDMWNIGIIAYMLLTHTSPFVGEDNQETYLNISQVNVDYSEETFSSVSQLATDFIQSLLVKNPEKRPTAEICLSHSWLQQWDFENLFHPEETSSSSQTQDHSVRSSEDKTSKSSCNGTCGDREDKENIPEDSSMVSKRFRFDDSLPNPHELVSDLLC

HCT-116 [5] = assay: Induction of apoptosis in human HCT-116 cells assessed as down regulation of cyclin B1 expression measured after 3 days by Western blot analysis; type: functional, cell-based; conditions: time 3.0 day
SNU-387 = assay: Induction of apoptosis in human SNU-387 cells assessed as increase in p21 expression level at 200 nM measured upto 5 days by Western blot analysis; type: functional, cell-based; conditions: time day <=5
Huh-7 [6] = assay: Induction of apoptosis in human Huh-7 cells assessed as down regulation of cyclin B1 expression at 200 nM measured upto 5 days by Western blot analysis; type: functional, cell-based; conditions: time day <=5
[7] = biological target: MAP kinase-activated protein kinase 3 (Homo sapiens, UniProt Q16644); assay: Inhibition of human recombinant MAPKAPK3 expressed in Sf9 insect cells using [KKLNRTLSVA] as substrate in presence of [33P]-ATP by radiometric hotspot kinetic assay
[8] = biological target: T1, Dual specificity protein kinase TTK; assay: Inhibition of recombinant human full length N-terminal GST-fused MPS1 (1 to 857 residues) using histone H3 as substrate by TR-FRET assay
[9] = biological target: T1, Dual specificity protein kinase TTK; assay: Inhibition of recombinant human full length N-terminal GST-fused MPS1 (1 to 857 residues) using histone H3 as substrate measured after 2 hrs in presence of DTT by TR-FRET assay
[10] = biological target: T1, Dual specificity protein kinase TTK; assay: Displacement of tracer K9 from NanoLuc-fused MPS1 (unknown origin) expressed in HEK293T cells measured after 2 hrs by NanoBRET assay; type: cell-based
Huh-7 [11] = assay: Induction of apoptosis in human Huh-7 cells assessed as increase in p21 expression level at 200 nM measured upto 5 days by Western blot analysis; type: functional, cell-based; conditions: time day <=5
Hep 3B2 [12] = assay: Antiproliferative activity against human Hep3B cells incubated for 5 days by XTT assay; type: functional, cell-based; conditions: time 5.0 day
[13] = biological target: Ribosomal protein S6 kinase beta-2 (Homo sapiens, UniProt Q9UBS0); assay: Inhibition of human recombinant P70S6Kbeta expressed in Sf9 insect cells using [KKRNRTLTK] as substrate in presence of [33P]-ATP by radiometric hotspot kinetic assay
Huh-7 [14] = assay: Antiproliferative activity against human Huh-7 cells incubated for 5 days by XTT assay; type: functional, cell-based; conditions: time 5.0 day
HCT-116 [15] = assay: Cell cycle arrest in human HCT-116 cells assessed as accumulation in G2/M phase incubated for 3 days; type: functional, cell-based; conditions: time 3.0 day
[16] = Microsomal stability in mouse liver microsomes assessed as half life at 100 uM pre-incubated for 5 mins with NADPH- regenerating system followed by liver microsomal addition and measured upto 120 mins by HPLC analysis; type: ADME, Microsome; conditions: time <=125 min
Huh-7 [17] = assay: Induction of cell senescence in human Huh-7 cells at 200 uM measured up to 5 days by SA-beta-gal-staining based assay; type: functional; conditions: time day <=5
HCT-116 [18] = assay: Cytotoxicity against human HCT-116 cells assessed as reduction in cell viability incubated for 5 days by XTT assay; type: functional, cell-based; conditions: time 5.0 day
SW-620 = assay: Antiproliferative activity against human SW-620 cells; type: functional, cell-based
[19] = Stability of compound in glutathione at pH 7.4 assessed as half life by HPLC analysis; type: physicochemical; conditions: glutathione solution, time 5 min
Hep 3B2 [20] = assay: Induction of apoptosis in human Hep3B cells assessed as increase in p21 expression level at 200 nM measured upto 5 days by Western blot analysis; type: functional, cell-based; conditions: time day <=5

Ribosomal protein S6 kinase beta-2, sequence (Q9UBS0 whole entry): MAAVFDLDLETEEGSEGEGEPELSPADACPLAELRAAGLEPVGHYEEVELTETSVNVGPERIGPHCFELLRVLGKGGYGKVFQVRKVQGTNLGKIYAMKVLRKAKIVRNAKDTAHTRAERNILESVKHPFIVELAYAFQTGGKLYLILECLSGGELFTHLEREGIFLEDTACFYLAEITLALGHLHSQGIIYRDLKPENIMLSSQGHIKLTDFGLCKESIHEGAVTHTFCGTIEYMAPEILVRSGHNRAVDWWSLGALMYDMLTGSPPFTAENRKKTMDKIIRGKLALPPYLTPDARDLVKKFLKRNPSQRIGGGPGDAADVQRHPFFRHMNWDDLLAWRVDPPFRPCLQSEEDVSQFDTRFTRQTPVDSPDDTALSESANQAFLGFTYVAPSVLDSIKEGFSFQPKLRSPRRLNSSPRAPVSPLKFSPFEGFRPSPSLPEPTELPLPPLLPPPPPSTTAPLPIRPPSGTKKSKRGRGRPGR
MAP kinase-activated protein kinase 3, sequence (Q16644 whole entry, the tested form may be a part): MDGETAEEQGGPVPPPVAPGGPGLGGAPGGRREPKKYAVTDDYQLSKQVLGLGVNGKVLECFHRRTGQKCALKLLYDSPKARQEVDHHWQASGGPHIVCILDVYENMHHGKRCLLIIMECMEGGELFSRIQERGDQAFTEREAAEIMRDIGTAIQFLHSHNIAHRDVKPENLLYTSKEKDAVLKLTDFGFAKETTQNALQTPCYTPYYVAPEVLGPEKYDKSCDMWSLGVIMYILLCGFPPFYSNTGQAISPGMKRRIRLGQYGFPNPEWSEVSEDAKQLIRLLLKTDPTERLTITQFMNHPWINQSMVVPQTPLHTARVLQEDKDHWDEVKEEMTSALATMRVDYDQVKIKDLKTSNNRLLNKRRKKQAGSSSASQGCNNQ

## C=CC(=O)Nc1cc(N2CCN(C)CC2)ccc1Nc1ncc2c(n1)-n1ccc(C(=O)Nc3c(CC)cccc3CC)c1CC2
COLO 205
  Activity: Active
[1]
  IC50: 0.0402 µM
MDA-MB-468
  Activity: Active
[2]
  Kinact: 0.000242 s⁻¹
[3]
  IC50: 0.0281 µM
HT-29
  Activity: Active
[4]
  ΔTm: 11.9 °C
HCT-116 [5]
  Activity: Active
SNU-387
  Activity: Active
Huh-7 [6]
  Activity: Active
[7]
  IC50: > 5 µM
[8]
  IC50: 0.013 µM
  Ki: 0.00083 µM
[9]
  IC50: 0.02 µM
[10]
  IC50: 0.0224 µM
Huh-7 [11]
  Activity: Active
Hep 3B2 [12]
  Activity: Active
[13]
  IC50: 1.65 µM
Huh-7 [14]
  Activity: Active
HCT-116 [15]
  Activity: Active
[16]
  half-life at 100 µM: 1 h
Huh-7 [17]
  Activity: Active
HCT-116 [18]
  Activity: Active
SW-620
  Activity: Active
[19]
  half-life at 100 µM: 84.5 h
Hep 3B2 [20]
  Activity: Active
